# Data reported in patent US20220056015A1, “KIF18A INHIBITORS” (AMGEN INC., priority 2018, published 2022).
# Molecular target: T1, Recombinant human KIF18A (1-467 His-tagged) protein (Homo sapiens, UniProt Q8NI77)
# T1 construct: Recombinant human KIF18A (1-467 His-tagged) protein; His
# Experiment: KIF18A Enzyme Assay: microtubule-stimulated ATPase activity assay (ADP-Glo)
# Assay type: biochemical
# Settings: 30 nM KIF18A, 30 μg/mL pig microtubules, ATP at Km 75 μM, room temperature, ADP-Glo luminescence
# Text: KIF18A Enzyme Assay: Microtubule-stimulated ATPase activity assay is used to measure KIF18A enzyme activity after treatment with compound. Compounds were 2-fold serially diluted in DMSO (Sigma Inc) over 22-point concentration range. Recombinant human KIF18A (1-467 His-tagged) protein was expressed using a baculovirus system and purified by affinity chromatography by Amgen Inc. Concentrations of KIF18A protein, microtubules (MT), and ATP in the reaction were optimized for standardized homogenous enzyme assay using ADP-Glorm Kinase/ATPase Assay Kit (Promega Inc). The assay measures ADP formed from the ATPase reaction. […] Read luminescence using EnVision microplate reader with ultra-luminescence module (Perkin Elmer Inc). Concentration-response curve-fitting and ICn determination was performed using Genedata Screener Software (Standard 15.0.1, Genedata Inc) with a four-parameter logistic regression fit model.
# T1 sequence (Q8NI77 1-467): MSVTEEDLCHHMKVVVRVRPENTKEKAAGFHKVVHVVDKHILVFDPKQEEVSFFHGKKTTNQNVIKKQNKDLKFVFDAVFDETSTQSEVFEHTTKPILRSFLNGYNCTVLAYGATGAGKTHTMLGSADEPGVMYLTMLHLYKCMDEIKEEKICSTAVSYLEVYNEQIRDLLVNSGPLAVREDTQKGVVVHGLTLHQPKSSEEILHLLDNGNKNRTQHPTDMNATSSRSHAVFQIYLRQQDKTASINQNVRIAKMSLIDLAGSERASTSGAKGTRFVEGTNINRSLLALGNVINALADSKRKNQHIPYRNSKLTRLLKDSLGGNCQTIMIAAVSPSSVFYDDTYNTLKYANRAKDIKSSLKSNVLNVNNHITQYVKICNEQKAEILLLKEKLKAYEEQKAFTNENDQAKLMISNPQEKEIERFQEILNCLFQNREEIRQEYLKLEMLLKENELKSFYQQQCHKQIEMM
# T1 sequence (P02550 whole entry partner): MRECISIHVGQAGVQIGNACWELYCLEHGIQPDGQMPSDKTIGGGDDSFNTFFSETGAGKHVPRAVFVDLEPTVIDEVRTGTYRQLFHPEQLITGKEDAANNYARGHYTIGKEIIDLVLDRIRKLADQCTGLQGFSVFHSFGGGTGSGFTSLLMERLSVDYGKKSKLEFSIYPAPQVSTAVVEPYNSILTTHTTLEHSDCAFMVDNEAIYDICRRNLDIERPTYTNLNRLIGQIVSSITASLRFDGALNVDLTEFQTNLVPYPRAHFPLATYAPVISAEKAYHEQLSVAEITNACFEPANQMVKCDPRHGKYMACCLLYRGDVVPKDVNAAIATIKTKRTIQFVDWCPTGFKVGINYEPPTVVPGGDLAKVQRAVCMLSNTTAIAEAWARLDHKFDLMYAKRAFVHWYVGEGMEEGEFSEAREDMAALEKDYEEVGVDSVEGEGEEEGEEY
# T1 sequence (P02554 whole entry partner): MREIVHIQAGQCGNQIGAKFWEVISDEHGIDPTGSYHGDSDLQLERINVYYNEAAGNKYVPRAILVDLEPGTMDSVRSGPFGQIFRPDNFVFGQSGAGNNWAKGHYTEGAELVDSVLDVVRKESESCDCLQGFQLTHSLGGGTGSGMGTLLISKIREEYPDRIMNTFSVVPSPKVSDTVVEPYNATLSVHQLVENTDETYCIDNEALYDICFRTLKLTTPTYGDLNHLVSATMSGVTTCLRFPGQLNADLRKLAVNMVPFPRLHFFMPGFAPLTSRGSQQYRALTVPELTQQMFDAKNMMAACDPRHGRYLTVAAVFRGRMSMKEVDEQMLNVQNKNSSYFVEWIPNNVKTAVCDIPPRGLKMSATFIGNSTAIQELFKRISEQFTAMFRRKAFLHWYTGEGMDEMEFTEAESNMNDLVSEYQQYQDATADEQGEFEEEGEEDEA
row,SMILES,IC50 [nM]
1,"Cc1cc(NC(=O)c2cnc(S(=N)(=O)C3CC3)cc2N2CCC3(CC2)CC3)nc(N2CCC(F)(F)CC2)n1 (single isomer, unassigned) [Example 4-1, 4-(6-Azaspiro[2.5]octan-6-yl)-6-(S-cyclopropylsulfonimidoyl)-N-(2-(4,4-difluoro-1-piperidinyl)-6-methyl-4-pyrimidinyl)-3-pyridinecarboxamide]",264
2,"Cc1cc(NC(=O)c2cnc([S@@](=N)(=O)C3CC3)cc2N2CCC3(CC2)CC3)nc(N2CCC(F)(F)CC2)n1 (single isomer, unassigned) [Example 4-2, 4-(6-Azaspiro[2.5]octan-6-yl)-6-(R-cyclopropylsulfonimidoyl)-N-(2-(4,4-difluoro-1-piperidinyl)-6-methyl-4-pyrimidinyl)-3-pyridinecarboxamide]",206
3,"Cc1cc(NC(=O)c2ncc(S(=N)(=O)C3CC3)cc2N2CCC3(CC2)CC3)nc(N2CCC(F)(F)CC2)n1 (single isomer, unassigned) [Example 5-2, 3-(6-Azaspiro[2.5]octan-6-yl)-5-(S-cyclopropylsulfonimidoyl)-N-(2-(4,4-difluoro-1-piperidinyl)-6-methyl-4-pyrimidinyl)-2-pyridinecarboxamide]",71
4,"Cc1cc(NC(=O)c2ccc(NS(=O)(=O)CCO)nc2N2CCC3(CC2)CC3)nc(N2CCC(F)(F)CC2)n1 [Example 1, N-(2-(4,4-difluoropiperidin-1-yl)-6-methylpyrimidin-4-yl)-6-((2-hydroxyethyl)sulfonamido)-2-(6-azaspiro[2.5]octan-6-yl)nicotinamide]",31
5,"Cc1cc(NC(=O)c2ccc(NS(=O)(=O)CCO)nc2N2CCC3(CC2)CC3)nc(N2CCO[C@H](C)C2)n1 [Example 1-1, (R)-6-((2-Hydroxyethyl)sulfonamido)-N-(6-methyl-2-(2-methylmorpholino)pyrimidin-4-yl)-2-(6-azaspiro[2.5]octan-6-yl)nicotinamide]",402
6,"Cc1cc(NC(=O)c2ccc(NC3COC3)nc2N2CCC3(CC2)CC3)nc(N2CCO[C@H](C)C2)n1 [Example 2, (R)—N-(6-methyl-2-(2-methylmorpholino)pyrimidin-4-yl)-6-(oxetan-3-ylamino)-2-(6-azaspiro[2.5]octan-6-yl)nicotinamide]",916
7,"Cc1cc(NC(=O)c2ccc(NC3(C)COC3)nc2N2CCC3(CC2)CC3)nc(N2CCO[C@H](C)C2)n1 [Example 2-1, (R)-N-(6-Methyl-2-(2-methylmorpholino)pyrimidin-4-yl)-6-((3-methyloxetan-3-yl)amino)-2-(6-azaspiro[2.5]octan-6-yl)nicotinamide]",355
8,"Cc1cc(NC(=O)c2ccc(NC3(CO)COC3)nc2N2CCC3(CC2)CC3)nc(N2CCO[C@H](C)C2)n1 [Example 2-2, (R)-6-((3-(Hydroxymethyl)oxetan-3-yl)amino)-N-(6-methyl-2-(2-methylmorpholino)pyrimidin-4-yl)-2-(6-azaspiro[2.5]octan-6-yl)nicotinamide]",218
9,"Cc1cc(NC(=O)c2ccc(NC3(C)COC3)nc2N2CCC3(CC2)CC3)nc(N2CCC(F)(F)CC2)n1 [Example 2-3, N-(2-(4,4-Difluoropiperidin-1-yl)-6-methylpyrimidin-4-yl)-6-((3-methyloxetan-3-yl)amino)-2-(6-azaspiro[2.5]octan-6-yl)nicotinamide]",453
10,"Cc1cc(NC(=O)c2ccc(NC3(CO)COC3)nc2N2CCC3(CC2)CC3)nc(N2CCC(F)(F)CC2)n1 [Example 2-4, N-(2-(4,4-Difluoropiperidin-1-yl)-6-methylpyrimidin-4-yl)-6-((3-(hydroxymethyl)oxetan-3-yl)amino)-2-(6-azaspiro[2.5]octan-6-yl)nicotinamide]",173
11,"Cc1cc(NC(=O)c2ccc(NC(C)(C)CO)nc2N2CCC3(CC2)CC3)nc(N2CCO[C@H](C)C2)n1 [Example 2-5, (R)-6-((1-Hydroxy-2-methylpropan-2-yl)amino)-N-(6-methyl-2-(2-methylmorpholino)pyrimidin-4-yl)-2-(6-azaspiro[2.5]octan-6-yl)nicotinamide]",230
12,"Cc1cc(NC(=O)c2ncc(NC(C)(C)CO)cc2N2CCC3(CC2)CC3)nc(N2CCC(F)(F)CC2)n1 [Example 2-6, N-(2-(4,4-Difluoropiperidin-1-yl)-6-methylpyrimidin-4-yl)-5-((1-hydroxy-2-methylpropan-2-yl)amino)-3-(6-azaspiro[2.5]octan-6-yl)picolinamide]",122
13,"Cc1cc(NC(=O)c2cnc(NC(C)(C)CO)nc2N2CCC3(CC2)CC3)nc(N2CCC(F)(F)CC2)n1 [Example 2-7, N-(2-(4,4-Difluoropiperidin-1-yl)-6-methylpyrimidin-4-yl)-2-((1-hydroxy-2-methylpropan-2-yl)amino)-4-(6-azaspiro[2.5]octan-6-yl)pyrimidine-5-carboxamide]",55
14,"Cc1cc(NC(=O)c2ncc(NC(C)(C)CO)nc2N2CCC3(CC2)CC3)nc(N2CCC(F)(F)CC2)n1 [Example 2-8, N-(2-(4,4-Difluoropiperidin-1-yl)-6-methylpyrimidin-4-yl)-5-((1-hydroxy-2-methylpropan-2-yl)amino)-3-(6-azaspiro[2.5]octan-6-yl)pyrazine-2-carboxamide]",88
15,"Cc1cc(NC(=O)c2ncc([S@](=N)(=O)C3CC3)cc2N2CCC3(CC2)CC3)nc(N2CCC(F)(F)CC2)n1 [Example 5-1, 3-(6-Azaspiro[2.5]octan-6-yl)-5-(R-cyclopropylsulfonimidoyl)-N-(2-(4,4-difluoro-1-piperidinyl)-6-methyl-4-pyrimidinyl)-2-pyridinecarboxamide]",105
16,"Cc1cc(NC(=O)c2ncc(NS(=O)(=O)CCO)cc2N2CCC3(CC2)CC3)nc(N2CCC(F)(F)CC2)n1 [Example 6, N-(2-(4,4-Difluoropiperidin-1-yl)-6-methylpyrimidin-4-yl)-5-((2-hydroxyethyl)sulfonamido)-3-(6-azaspiro[2.5]octan-6-yl)picolinamide]",15
17,"Cc1cc(NC(=O)c2cnc(NS(=O)(=O)CCO)cc2N2CCC3(CC2)CC3)nc(N2CCC(F)(F)CC2)n1 [Example 7, N-(2-(4,4-Difluoropiperidin-1-yl)-6-methylpyrimidin-4-yl)-6-((2-hydroxyethyl)sulfonamido)-4-(6-azaspiro[2.5]octan-6-yl)nicotinamide]",13
18,"Cc1cc(NC(=O)c2cnc(NS(=O)(=O)CCO)nc2N2CCC3(CC2)CC3)nc(N2CCC(F)(F)CC2)n1 [Example 7-1, N-(2-(4,4-difluoropiperidin-1-yl)-6-methylpyrimidin-4-yl)-2-((2-hydroxyethyl)sulfonamido)-4-(6-azaspiro[2.5]octan-6-yl)pyrimidine-5-carboxamide]",272
19,"Cc1cc(NC(=O)c2ncc(S(=O)(=O)C3CC3)cc2N2CCC3(CC2)CC3)nc(N2CCC(F)(F)CC2)n1 [Example 8, 5-(Cyclopropylsulfonyl)-N-(2-(4,4-difluoropiperidin-1-yl)-6-methylpyrimidin-4-yl)-3-(6-azaspiro[2.5]octan-6-yl)picolinamide]",91
20,"Cc1cc(NC(=O)c2cc(NCCO)ncc2N2CCC3(CC2)CC3)nc(N2CCC(F)(F)CC2)n1 [Example 9, N-(2-(4,4-Difluoropiperidin-1-yl)-6-methylpyrimidin-4-yl)-2-((2-hydroxyethyl)amino)-5-(6-azaspiro[2.5]octan-6-yl)isonicotinamide]",394
21,"Cc1cc(NC(=O)c2ncc(NS(=O)(=O)CCO)nc2N2CCC3(CC2)CC3)nc(N2CCC(F)(F)CC2)n1 [Example 10, N-(2-(4,4-Difluoropiperidin-1-yl)-6-methylpyrimidin-4-yl)-5-((2-hydroxyethyl)sulfonamido)-3-(6-azaspiro[2.5]octan-6-yl)pyrazine-2-carboxamide]",80
22,"O=C(Nc1ccc(NS(=O)(=O)CCO)cc1N1CCC2(CC1)CC2)c1ccnc(N2CCC(F)(F)CC2)c1 [Example 11, 2-(4,4-Difluoropiperidin-1-yl)-N-(4-((2-hydroxyethyl)sulfonamido)-2-(6-azaspiro[2.5]octan-6-yl)phenyl)isonicotinamide]",27
